A short description of this test: Degree of premature breaking of hair, tensile test. Conditions: parameter R; natural African hair immersed three days at 40° C. in composition of 5% by weight compound and 95% water, no final rinsing; hairs 30 mm, pulled at 10 mm/minute; untreated control 0.27. On the procedure: The hair used for the following tests was regulated beforehand in a glove box at 25° C. and 45% relative humidity for about 24 hours. This was natural curly African hair.
The four abovementioned compounds were respectively formulated in the form of a composition comprising 5% by weight of the compound under consideration and 95% by weight of water relative to the total weight of the composition.
Four batches of natural African hair were treated, respectively, with each of the four compositions according to the following protocol: the hair is immersed for three days at 40° C. in the composition under consideration, without final rinsing, and its degree of premature breaking is then assessed by comparison with that of a batch of untreated natural control hair.
The degree of premature breaking of the hair is characterized by the following parameter R:
R=1−(number of hairs showing breakage under tension in the hardening zone/N),
N being the total number of hairs tested.
The corresponding mechanical tests are performed using a Zwicko tensile testing machine on hairs 30 mm long. The hairs were pulled at a speed of 10 mm/minute.
As to `CC(O)C[C@@H]1OC[C@@H](O)[C@H](O)[C@H]1O` (stereo partly drawn) [Compound 1, C-β-D-xylopyranoside-2-hydroxypropane], the “Degree of premature breaking” value was 0.17.

As for `CC(=O)C[C@@H]1OC[C@@H](O)[C@H](O)[C@H]1O` [Compound 2, C-β-D-Xylopyranoside-n-propan-2-one], the “Degree of premature breaking” value came out at 0.20.

With `CC(=O)C[C@@H]1O[C@H](CO)[C@@H](O)[C@H](O)[C@H]1O` [Compound 4, C-β-D-glucopyranoside-n-propan-2-one], the “Degree of premature breaking” value stood at 0.23.

In the case of `CC(=O)C[C@@H]1O[C@H](CO)[C@@H](O[C@@H]2O[C@H](CO)[C@H](O)[C@H](O)[C@H]2O)[C@H](O)[C@H]1O` [Compound 3, C-β-D-Lactopyranoside-n-propan-2-one], the “Degree of premature breaking” value was 0.13.

For the origin of these results see patent publication US20080153760A1, “Haircare Use Of C-Glycoside Derivatives” (L'OREAL, priority 2005, published 2008).
